The source of these data is patent US11111222B2, “Hydroxyeicosatrienoic acid compounds and their use as therapeutic agents” (THE REGENTS OF THE UNIVERSITY OF MICHIGAN, priority 2016, dated 2021).

Assay [1] has as its system washed platelets from WT or 12-LOX−/− mice. Kind of assay: Platelet aggregation, washed murine platelets (lumi-aggregometer). The assay is classed as cell-based, mouse. The note with it: 10 μM PUFA, 10 min. As to the method:
The 12-LOX null C57BL/6 (12-LOX^−/−) mice were generated using homozygous breeding pairs and wild-type (WT) C57BL/6 ([…]) mice were purchased (Jackson Laboratory). […] Mouse blood was diluted with equal volumes of Tyrode's buffer (10 mM HEPES, 11.9 mM sodium bicarbonate, 127.2 mM sodium chloride, 5 mM potassium chloride, 0.4 mM sodium phosphate monobasic, 1 mM magnesium chloride, and 5 mM D-glucose) and centrifuged at 200×g. Platelet-rich-plasma (PRP) was transferred to a tube containing 10× acid citrate dextrose solution (ACD) (2.5% sodium citrate, 1.5% citric acid, and 2% D-glucose) and apyrase (0.02 U/mL), and centrifuged at 2000×g. Platelet count was adjusted to 3×10^8 platelets/mL with Tyrode's buffer for all studies.
A lumi-aggregometer (Chrono-log model 700D) was used to measure platelet aggregation under stirring conditions (1100 rpm) at 37° C. Prior to agonist stimulation platelets were incubated with a preselected PUFA or oxylipin for 10 minutes.

A further assay concerns VASP (serine 157). Nature of the assay: VASP phosphorylation in human platelets. The assay is classed as cell-based. The note with it: DGLA 10 μM, 1 min; vs DMSO. As to the method:
Washed platelets were treated with PUFA or PUFA metabolite (12(S)-HETrE or compound IIc) for one minute, then directly lysed in 5× Laemmeli sample buffer (1.5 M Tris-HCl, pH 6.8, glycerol, 5% β-mercaptoethanol, 10% sodium dodecyl sulfate (SDS), and 1% bromophenol blue). The samples were boiled for five minutes and then run on a 10% SDS-PAGE gel. The levels of total and phospho-VASP (serine 157) were quantified by Western Blot using an Odyssey imaging system (LI-CoR).

The next assay deals with platelets. Particulars: cited from earlier work.
Assay [2] concerns thrombus formation (platelet and fibrin) in cremaster arterioles. Nature of the assay: Laser-induced cremaster arteriole thrombosis model. The assay is classed as in vivo, mouse. Particulars: vs vehicle. As for the experimental part: Wild type (WT) or 12-LOX^−/− mice (12 weeks of age) were anesthetized by intraperitoneal injection of ketamine/xylazine (100 mg/kg) prior to the exposure of the cremaster muscle arterioles under a dissecting microscope with constant perfusion of preheated bicarbonate-buffered saline (Reheman et al., J Thromb Haemost 3:875-883, 2005; Reheman et al., Blood 113:1809-1817, 2009; Wang et al., J Clin Invest 124:4281-4293, 2014). Anti-platelet (DyLight 488 anti-GPIb, 1 μg/g) and anti-fibrin (Alexa Fluor 647, 0.3 μg/g) antibodies were administered via jugular vein catheter prior to intravital microscopy. DGLA (50 mg/kg) or DMSO (vehicle control) were dissolved in a formulation of 5% DMSO and 45% PEG300 in sterile 1×PBS and then intravenously injected into mice 10 minutes prior to induction of thrombosis. 12(S)-HETrE (6 mg/kg) or equal volume of DMSO (vehicle control) was also intravenously injected into mice 10 minutes prior to induction of thrombosis. Multiple independent thrombi were induced in the arterioles (30-50 μm diameter) in each mouse by a laser ablation system (Ablate! photoablation system; Intelligent Imaging Innovations, Denver, Colo., USA). Images of thrombus formation were acquired in real-time under 63× water-immersion objective with a Zeiss Axio Examiner Z1 fluorescent microscope equipped with solid laser launch system (LaserStack; Intelligent Imaging Innovations) and high-speed sCMOS camera. All captured images were analyzed on Slidebook (Intelligent Imaging Innovations Inc., Denver, Colo., USA).

The test system of another assay is Rap1. Nature of the assay: Rap1 activation in washed platelets (Rap1-GTP pull-down, Western blot). The assay is classed as cell-based, mouse. The note with it: 10 μM DGLA, PAR4-AP 50, 100, 200 μM. As to the method:
Following 1 minute of stimulation platelets were lysed with 2× platelet lysis buffer (100 mM Tris HCl, pH 7.4, 150 mM NaCl, 2% IGEPAL, 1% sodium deoxycholate, and 0.05% SDS) containing protease and phosphatase inhibitors. The cytoskeleton was pelleted by centrifugation at 14000×g for 7 minutes at 4° C. Active Rap1 was selectively captured from the supernatant by incubating GST-tagged Rap1 binding domain of RalGDS conjugated to glutathione sepharose beads for one hour on a nutator at 4° C. The beads were then washed 5 times with IP buffer and resuspended in 2× Laemmeli reducing buffer (62.5 mM Tris-HCl, pH 6.8, 2% SDS, 25% glycerol, 0.01% bromophenol blue, 5% β-mercaptoethanol). The samples were boiled for 10 minutes and then loaded onto a 10% SDS-polyacrylamide gel electrophoresis (PAGE) gel. Western blots were performed using a Rap1 antibody and quantified with a LI-COR imager.

Setting [3] is: WT mice, 50 mg/kg i.v. 10 min before laser injury.

For `CCCCC/C=C\C/C=C\C/C=C\CCCCCCC(=O)O` [DGLA, Dihomo-γ-linolenic acid], in assay [1] (12-LOX−/− mouse platelets, EC80 PAR4-AP (200 μM) or collagen (2 or 5 μg/mL), vs vehicle), the platelet aggregation result is listed as “failed to inhibit platelet aggregation”. For the same molecule, the platelet aggregation result in assay [1] (WT mouse platelets, EC80 PAR4-AP (100 μM) or collagen (5 μg/mL), vs DMSO) is “significant inhibition of aggregation”. Further, the “VASP phosphorylation (S157)” value in the assay on VASP (serine 157) is on record as “enhanced VASP phosphorylation”. Further, in the assay with platelets (literature (Farrow and Willis 1975; Kernoff 1977; Willis 1974)), the “platelet aggregation ex vivo” value was “inhibit platelet aggregation ex vivo”. In the assay on platelets (platelets from humans, baboons, rabbits and rats that received daily oral doses), the “ex vivo aggregation of platelets after dosing” value is on record as “significant reduction in ex vivo aggregation”. In addition, in assay [2] (12-LOX−/− mice, 50 mg/kg i.v.), the “fibrin accumulation in thrombi” value is “did not differ” and the “platelet accumulation in thrombi” value is on record as “did not differ”. In assay [2] (setting [3]), the “fibrin accumulation at the site of injury” value is given as “but not fibrin accumulation” and the “platelet accumulation at the site of injury” value is “significant reduction in platelet”. Moreover, the “Rap1 activation (Rap1-GTP)” value in the assay with Rap1 (12-LOX−/− mouse platelets) is reported as “unable to inhibit Rap1 activation”. The “Rap1 activation (Rap1-GTP)” value with Rap1 (WT mouse platelets) is reported as “inhibited Rap1 activation at all concentrations of PAR4-AP tested”.
